Source: US7655629B2, “Peptides and their use for the treatment of HIV infections” (priority 2002, dated 2010)
Read-outs that look alike come from different tables or passages of the source. Positions of bridges follow the written chain, without caps; N, C: chain ends. Non-standard residues stand in square brackets, D forms with d. Residues, ends and D or L forms follow the SMILES beside them. Tic = O=C(O)[C@@H]1Cc2ccccc2CN1; dTic = O=C(O)[C@H]1Cc2ccccc2CN1; NMeL = CN[C@@H](CC(C)C)C(=O)O; AEEA = NCCOCCOCC(=O)O

What was measured:
[1] = rat, plasma
Experimental: (§2) Plasma was spiked resulting in concentrations of 40 μg/ml and stored at 37° C. At time points 0, 15, 30, 45, 60, 120, 180, 240 and 300 min samples of 20 μl were taken. The plasma was immediately mixed for precipitation with the two-fold volume of acetonitrile containing 0.15% (w/v) n-nonyl-β-D-glucopyranoside. Following centrifugation the supernatants were mixed with the two-fold volume of 0.1% (v/v) trifluroacetic acid. Twenty μl of these solutions were analyzed by LC-MS. Chromatography was performed using a gradient with the following eluents: eluent A: water containing 0.06% trifluroacetic acid (v/v), eluent B: acetonitrile/water 80:20 (v/v; with 0.05% trifluoroacetic acid; v/v). A C18 precolumn was used in combination with a C18 separation column (300 Å, 5 μm, 150×1 mm inner diameter) at a flow rate of 30 μl/min. HPLC eluates were ionized by the electrospray technique of a LCQ classic mass spectrometer. Areas of the detected peaks of the peptides of the present invention were measured and used for quantification by external calibration. The calibration curve was linear over a range from 0.5 μg/ml to 250 μg/ml plasma. Half life—defined as the period for a concentration decrease to 50% of the initial concentration—was calculated from the slope of an extrapolated curve plotting the relative peptide concentration at a given time point (logarithm scale) against the incubation time. These experiments allowed the quantitative analysis of peptide concentration in plasma.

X4-tropic HIV-1 NL4-3 = conditions: read-out: IC50 NL4-3; P4-CCR5 cells, HIV-1 NL4-3, peptide 2 h before infection, readout three days after infection
Procedure, shortened: (§1)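 P4-CCR5 cells (CD4, CCR5, CXCR4, HIV-1 promoter-driven β-galactosidase) pretreated 2 h with peptide, then infected with virus containing 1 ng p24 antigen and incubated overnight. Cells washed and cultured without peptide; three days post-infection infectivity read by chemiluminescent β-galactosidase assay, in quintuplicate.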

HIV-1 NL4-3 DTV = conditions: read-out: IC50 DTV, P4-CCR5 cells, peptide 2 h before infection, readout three days after infection
Procedure, shortened: as §1

[2] = human, plasma
Experimental: as §2

[3] = cynomolgus monkey, plasma
Experimental: as §2

[4] = dog, plasma
Experimental: as §2

SMILES | half-life [1] | IC50 (X4-tropic HIV-1 NL4-3) | IC50 (HIV-1 NL4-3 DTV) | half-life [2] | half-life [3] | half-life [4]
CC[C@H](C)[C@H](NC(=O)[C@H](CC(=O)O)NC(=O)[C@H](CCC(=O)O)NC(=O)[C@@H](N)CC(C)C)C(=O)N1CCC[C@H]1C(=O)N[C@H]1CSSC[C@@H](C(=O)N[C@H](C(=O)N[C@@H](C)C(=O)N[C@@H](Cc2ccccc2)C(=O)N[C@@H](CC(N)=O)C(=O)N[C@@H](CCCCN)C(=O)N2CCC[C@H]2C(=O)N[C@@H](Cc2ccccc2)C(=O)N[C@H](C(=O)N[C@@H](Cc2ccccc2)C(=O)O)C(C)C)C(C)C)NC(=O)[C@H]2CCCN2C(=O)[C@@H]2CCCN2C(=O)[C@H]([C@@H](C)CC)NC(=O)[C@H](CO)NC1=O [VIR-357, LEDIPCSIPpCVAFNKPFVF] (H-LEDIPCSIP[dP]CVAFNKPFVF-OH; disulfide 6-11) | 0.6 h | 497 nM | 704 nM | 23.3 h | 13.2 h | 71.5 h
CC[C@H](C)[C@H](NC(=O)[C@H](CCCCN)NC(=O)[C@H](CCC(=O)O)NC(=O)[C@@H](N)CC(C)C)C(=O)N1CCC[C@H]1C(=O)N[C@H]1CSSC[C@@H](C(=O)N[C@H](C(=O)N[C@@H](C)C(=O)N[C@@H](Cc2ccccc2)C(=O)N[C@@H](CC(N)=O)C(=O)N[C@@H](CCCCN)C(=O)N2CCC[C@H]2C(=O)N[C@@H](Cc2ccccc2)C(=O)N[C@H](C(=O)N[C@@H](Cc2ccccc2)C(=O)O)C(C)C)C(C)C)NC(=O)[C@H]2CCCN2C(=O)[C@@H]2CCCN2C(=O)[C@H]([C@@H](C)CC)NC(=O)[C@H](CO)NC1=O [VIR-358, LEKIPCSIPpCVAFNKPFVF] (H-LEKIPCSIP[dP]CVAFNKPFVF-OH; disulfide 6-11) | 0.4 h | 706 nM | 944 nM | 5.9 h | 4.7 h | 16 h
CC[C@H](C)[C@H](NC(=O)[C@H](C)NC(=O)[C@H](CCC(=O)O)NC(=O)[C@@H](N)CC(C)C)C(=O)N1CCC[C@H]1C(=O)N[C@@H](CCSC)C(=O)NCC(=O)N[C@H](C(=O)N1CCC[C@H]1C(=O)N1CCC[C@@H]1C(=O)N[C@@H](CCC(=O)O)C(=O)N[C@H](C(=O)N1Cc2ccccc2C[C@@H]1C(=O)N[C@@H](Cc1ccccc1)C(=O)N[C@@H](CC(N)=O)C(=O)N[C@@H](CCCCN)C(=O)N1CCC[C@H]1C(=O)N[C@@H](Cc1ccccc1)C(=O)N[C@H](C(=O)N[C@@H](Cc1ccccc1)C(=O)O)C(C)C)C(C)C)[C@@H](C)CC [VIR-448, LEAIPMGIPpEV(D-Tic)FNKPFVF] (H-LEAIPMGIP[dP]EV[dTic]FNKPFVF-OH) | 0.2 h | 318 nM | 325 nM | 3.1 h | 4.5 h | 18 h
CC[C@H](C)[C@H](NC(=O)[C@H](C)NC(=O)[C@H](CCC(=O)O)NC(=O)[C@@H](N)CC(C)C)C(=O)N1CCC[C@H]1C(=O)N[C@@H](CCSC)C(=O)NCC(=O)N[C@H](C(=O)N1CCC[C@H]1C(=O)N1CCC[C@@H]1C(=O)N[C@@H](CCC(=O)O)C(=O)N[C@H](C(=O)N1Cc2ccccc2C[C@H]1C(=O)N[C@@H](Cc1ccccc1)C(=O)N[C@@H](CC(N)=O)C(=O)N[C@@H](CCCCN)C(=O)N1CCC[C@H]1C(=O)N[C@@H](Cc1ccccc1)C(=O)N[C@H](C(=O)N[C@@H](Cc1ccccc1)C(=O)O)C(C)C)C(C)C)[C@@H](C)CC [VIR-449, LEAIPMGIPpEV(L-Tic)FNKPFVF] (H-LEAIPMGIP[dP]EV[Tic]FNKPFVF-OH) | 0.2 h | 274 nM | 240 nM | 4.8 h | 4.2 h | 42.2 h
CC[C@H](C)[C@H](NC(=O)[C@H](CCCCN)NC(=O)[C@H](CCC(=O)O)NC(=O)[C@@H](N)CC(C)C)C(=O)N1CCC[C@H]1C(=O)N[C@@H](CCSC)C(=O)N[C@@H](CO)C(=O)N[C@H](C(=O)N1CCC[C@H]1C(=O)N1CCC[C@@H]1C(=O)N[C@@H](CCC(=O)O)C(=O)N[C@H](C(=O)N1Cc2ccccc2C[C@@H]1C(=O)N[C@@H](Cc1ccccc1)C(=O)N[C@@H](CC(N)=O)C(=O)N[C@@H](CCCCN)C(=O)N1CCC[C@H]1C(=O)N[C@@H](Cc1ccccc1)C(=O)N[C@H](C(=O)N[C@@H](Cc1ccccc1)C(=O)O)C(C)C)C(C)C)[C@@H](C)CC [VIR-454, LEKIPMSIPpEV(D-Tic)FNKPFVF] (H-LEKIPMSIP[dP]EV[dTic]FNKPFVF-OH) | 0.2 h | 464 nM | 1090 nM | 4.4 h | 4.4 h | 15.6 h
CC[C@H](C)[C@H](NC(=O)[C@H](CCCCN)NC(=O)[C@H](CCC(=O)O)NC(=O)[C@@H](N)CC(C)C)C(=O)N1CCC[C@H]1C(=O)N[C@@H](CCSC)C(=O)N[C@@H](CO)C(=O)N[C@H](C(=O)N1CCC[C@H]1C(=O)N1CCC[C@@H]1C(=O)N[C@@H](CCC(=O)O)C(=O)N[C@H](C(=O)N1Cc2ccccc2C[C@H]1C(=O)N[C@@H](Cc1ccccc1)C(=O)N[C@@H](CC(N)=O)C(=O)N[C@@H](CCCCN)C(=O)N1CCC[C@H]1C(=O)N[C@@H](Cc1ccccc1)C(=O)N[C@H](C(=O)N[C@@H](Cc1ccccc1)C(=O)O)C(C)C)C(C)C)[C@@H](C)CC [VIR-455, LEKIPMSIPpEV(L-Tic)FNKPFVF] (H-LEKIPMSIP[dP]EV[Tic]FNKPFVF-OH) | 0.3 h | 134 nM | 353 nM | 5.8 h | 6.8 h | 8.6 h
CC[C@H](C)[C@H](NC(=O)[C@@H]1CCCN1C(=O)[C@@H](NC(=O)[C@H](CCCCN)NC(=O)[C@H](CCC(=O)O)NC(=O)[C@@H](N)CC(C)C)[C@@H](C)CC)C(=O)NCC(=O)N[C@H](C(=O)N1CCC[C@H]1C(=O)N1CCC[C@@H]1C(=O)N[C@@H](CCC(=O)O)C(=O)N[C@H](C(=O)N1Cc2ccccc2C[C@@H]1C(=O)N[C@@H](Cc1ccccc1)C(=O)N[C@@H](CC(N)=O)C(=O)N[C@@H](CCCCN)C(=O)N1CCC[C@H]1C(=O)N[C@@H](Cc1ccccc1)C(=O)N[C@H](C(=O)N[C@@H](Cc1ccccc1)C(=O)O)C(C)C)C(C)C)[C@@H](C)CC [VIR-483, LEKIPIGIPpEV(D-Tic)FNKPFVF] (H-LEKIPIGIP[dP]EV[dTic]FNKPFVF-OH) | 0.2 h | 765 nM | 866 nM | 2.6 h | 2.2 h | 6.2 h
CC[C@H](C)[C@H](NC(=O)[C@@H]1CCCN1C(=O)[C@@H](NC(=O)[C@H](CCCCN)NC(=O)[C@H](CCC(=O)O)NC(=O)[C@@H](N)CC(C)C)[C@@H](C)CC)C(=O)NCC(=O)N[C@H](C(=O)N1CCC[C@H]1C(=O)N1CCC[C@@H]1C(=O)N[C@@H](CCC(=O)O)C(=O)N[C@H](C(=O)N1Cc2ccccc2C[C@H]1C(=O)N[C@@H](Cc1ccccc1)C(=O)N[C@@H](CC(N)=O)C(=O)N[C@@H](CCCCN)C(=O)N1CCC[C@H]1C(=O)N[C@@H](Cc1ccccc1)C(=O)N[C@H](C(=O)N[C@@H](Cc1ccccc1)C(=O)O)C(C)C)C(C)C)[C@@H](C)CC [VIR-484, LEKIPIGIPpEV(L-Tic)FNKPFVF] (H-LEKIPIGIP[dP]EV[Tic]FNKPFVF-OH) | 0.2 h | 100 nM | 339 nM | 5 h | 3.6 h | 12.4 h
CC[C@H](C)[C@H](NC(=O)[C@H](C)NC(=O)[C@H](CCC(=O)O)NC(=O)[C@H](CC(C)C)NC)C(=O)N1CCC[C@H]1C(=O)N[C@@H](CCSC)C(=O)N[C@@H](CO)C(=O)N[C@H](C(=O)N1CCC[C@H]1C(=O)N1CCC[C@H]1C(=O)N[C@@H](CCC(=O)O)C(=O)N[C@@H](Cc1ccccc1)C(=O)N[C@@H](CC(C)C)C(=O)N[C@@H](Cc1ccccc1)C(=O)NCC(=O)N[C@@H](CCCCN)C(=O)N1CCC[C@H]1C(=O)N[C@@H](Cc1ccccc1)C(=O)N[C@H](C(=O)N[C@@H](Cc1ccccc1)C(=O)O)C(C)C)[C@@H](C)CC [VIR-512] (H-[NMeL]EAIPMSIPPEFLFGKPFVF-OH) | > 6 h | 138 nM | 615 nM | 315 h | 33.6 h | 48.1 h
CC[C@H](C)[C@H](NC(=O)[C@H](C)NC(=O)[C@H](CCC(=O)O)NC(=O)[C@@H](N)CC(C)C)C(=O)N1CCC[C@H]1C(=O)N[C@@H](CCSC)C(=O)N[C@@H](CO)C(=O)N[C@H]1CSSC[C@@H](C(=O)N[C@@H](Cc2ccccc2)C(=O)NCC(=O)N[C@@H](CCCCN)C(=O)N2CCC[C@H]2C(=O)N[C@@H](Cc2ccccc2)C(=O)N[C@H](C(=O)N[C@@H](Cc2ccccc2)C(=O)O)C(C)C)NC(=O)[C@H](Cc2ccccc2)NC(=O)[C@H](CCC(=O)O)NC(=O)[C@@H]2CCCN2C(=O)[C@@H]2CCCN2C1=O [VIR-568] (H-LEAIPMSCPPEFCFGKPFVF-OH; disulfide 8-13) | 0.1 h | 367 nM | 552 nM | 3.9 h | 2.2 h | 4 h
CC[C@H](C)[C@H](NC(=O)[C@H](C)NC(=O)[C@H](CCC(=O)O)NC(=O)[C@@H](N)CC(C)C)C(=O)N1CCC[C@H]1C(=O)N[C@@H](CCSC)C(=O)N[C@@H](CO)C(=O)N[C@H](C(=O)N1CCC[C@H]1C(=O)N1CCC[C@H]1C(=O)N[C@@H](CCC(=O)O)C(=O)N[C@@H](Cc1ccccc1)C(=O)N[C@@H](CC(C)C)C(=O)N[C@@H](Cc1ccccc1)C(=O)NCC(=O)N[C@@H](CCCCN)C(=O)N1CCC[C@H]1C(=O)N[C@@H](Cc1ccccc1)C(=O)N[C@H](C(=O)N[C@@H](Cc1ccccc1)C(=O)NCCOCCOCC(=O)NCCOCCOCC(N)=O)C(C)C)[C@@H](C)CC [VIR-580] (H-LEAIPMSIPPEFLFGKPFVF[AEEA][AEEA]-NH2) | 1.4 h | 150 nM | 497 nM | 38.9 h | 10.2 h | 42 h
